Earlier results in PMC2748991 (Planta medica, 2009).

Tests used:
[1] = system: elastase; settings: ref [3],[4]
[2] = system: trypsin; settings: ref [5]

| Substance | elastase inhibition (in words) [1] | trypsin inhibition (in words) [2] |
| --- | --- | --- |
| lyngbyastatin 5 | potent inhibitors | – |
| pompanopeptin A | – | trypsin inhibitor |
| lyngbyastatin 6 | potent inhibitors | – |
